{"source": "patent US20110002987A1", "about": "“Nicorandil Carriers with Enhanced Stability” (RIVOPHARM SA, priority 2008, published 2011)", "assay": "Stability tests of nicorandil tablets in alu/alu blister with desiccant system", "assay_type": "physicochemical", "settings": "stored in combination with molecular sieve instead of silica gel desiccant, 6 months", "procedure": "Two batches of Nicorandil tablets, 10 mg (batch 043/07) and 20 mg (batch 044/07) respectively, were prepared and packed according to the invention, in alu/alu blister together with a desiccant system.\nSilica gel and molecular sieves were compared as desiccant systems and among molecular sieves, systems with different capacity of water absorption were considered.\n043/07A: silica gel system\n043/07B: 1 lozenge of desiccant plastic composition (Molecular Sieve 4A as provided by CSP technologies), containing molecular sieve 4 Å, a base polymer of polypropylene and an elastomer (moisture absorbed in mg: about 64)\n043/07C: 5 lozenges of desiccant plastic composition (Molecular Sieve 4A as provided by CSP technologies), containing molecular sieve 4 Å, a base polymer of polypropylene and an elastomer (moisture absorbed in mg: about 320)\nThe blisters were placed on stability at the following conditions for 6 months:\n25±2° C./60±5% relative humidity (RH)\nNicorandil is particularly sensitive to humidity. Two impurities (named rrt0.14 and rrt0.25) are generated when the product is exposed to moisture and therefore were monitored during stability.", "data": [{"compound": "O=C(NCCO[N+](=O)[O-])c1cccnc1", "note": "[Nicorandil]", "values": [{"measurement": "stability of nicorandil", "value": "more stable"}, {"measurement": "stability of nicorandil", "setting": "listed as nicorandil", "value": "improved stability"}]}]}
